Data published in ChEMBL document CHEMBL4270584, “In silico fragment-based drug design with SEED” (Eur J Med Chem, 2018).
One block for each compound: values may come before it.

Tests used:
Beta-secretase 1 = Beta-secretase 1 (Homo sapiens, UniProt P56817); assay: Inhibition of human BACE-1 after 30 mins by FRET assay
[1] = molecular target: T1, Bromodomain-containing protein 4 (Homo sapiens, UniProt O60885); assay: Binding affinity to human BRD4 bromodomain-1
[2] = molecular target: T2, ATPase family AAA domain-containing protein 2 (Homo sapiens, UniProt Q6PL18); assay: Inhibition of H4K5/8/12/16-Ac-biotin binding to human ATAD2 by Alpha screen assay
T2 sequence (Q6PL18 whole entry): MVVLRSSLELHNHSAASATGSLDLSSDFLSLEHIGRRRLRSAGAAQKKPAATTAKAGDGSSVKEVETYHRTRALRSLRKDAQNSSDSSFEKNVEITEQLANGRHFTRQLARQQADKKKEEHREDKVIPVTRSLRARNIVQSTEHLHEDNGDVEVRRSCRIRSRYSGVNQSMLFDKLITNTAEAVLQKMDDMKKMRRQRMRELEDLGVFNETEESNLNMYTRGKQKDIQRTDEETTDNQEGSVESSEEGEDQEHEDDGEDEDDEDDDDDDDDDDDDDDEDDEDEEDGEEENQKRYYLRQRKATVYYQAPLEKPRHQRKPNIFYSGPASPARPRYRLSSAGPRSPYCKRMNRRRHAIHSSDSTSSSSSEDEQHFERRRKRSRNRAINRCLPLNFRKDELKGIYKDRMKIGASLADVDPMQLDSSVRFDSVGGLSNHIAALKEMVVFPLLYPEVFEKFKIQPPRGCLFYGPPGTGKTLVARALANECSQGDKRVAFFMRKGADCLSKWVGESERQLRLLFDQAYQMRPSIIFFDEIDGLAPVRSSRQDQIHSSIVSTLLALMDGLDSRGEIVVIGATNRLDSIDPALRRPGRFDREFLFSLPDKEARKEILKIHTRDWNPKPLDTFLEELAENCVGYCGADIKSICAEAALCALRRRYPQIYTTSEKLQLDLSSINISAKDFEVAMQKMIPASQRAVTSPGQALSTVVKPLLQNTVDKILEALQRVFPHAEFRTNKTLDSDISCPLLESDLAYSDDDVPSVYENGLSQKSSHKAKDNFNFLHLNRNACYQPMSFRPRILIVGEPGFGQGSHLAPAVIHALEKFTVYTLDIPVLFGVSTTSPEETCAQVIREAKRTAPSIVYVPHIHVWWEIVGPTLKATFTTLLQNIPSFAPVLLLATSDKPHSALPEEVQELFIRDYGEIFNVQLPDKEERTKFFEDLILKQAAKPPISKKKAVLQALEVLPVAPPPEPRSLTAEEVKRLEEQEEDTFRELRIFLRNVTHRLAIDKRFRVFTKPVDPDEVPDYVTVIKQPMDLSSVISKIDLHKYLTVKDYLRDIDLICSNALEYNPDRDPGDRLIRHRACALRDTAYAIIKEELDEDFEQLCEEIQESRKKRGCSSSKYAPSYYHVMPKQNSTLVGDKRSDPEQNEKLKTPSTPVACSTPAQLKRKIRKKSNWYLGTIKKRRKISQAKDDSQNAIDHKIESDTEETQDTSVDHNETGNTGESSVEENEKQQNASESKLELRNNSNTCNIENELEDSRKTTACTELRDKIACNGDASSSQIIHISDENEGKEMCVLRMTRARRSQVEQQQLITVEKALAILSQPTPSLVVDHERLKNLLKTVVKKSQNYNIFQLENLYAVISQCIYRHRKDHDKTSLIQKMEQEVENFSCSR

[3] = molecular target: T1, Bromodomain-containing protein 4; assay: Inhibition of H4K5/8/12/16-Ac-biotin binding to human BRD4 bromodomain-1 by Alpha screen assay
[4] = molecular target: T3, 3-dehydroquinate dehydratase (Helicobacter pylori (strain ATCC 700392 / 26695) (Campylobacterpylori), UniProt Q48255); assay: Inhibition of Helicobacter pylori DHQ2
T3 sequence (Q48255 whole entry): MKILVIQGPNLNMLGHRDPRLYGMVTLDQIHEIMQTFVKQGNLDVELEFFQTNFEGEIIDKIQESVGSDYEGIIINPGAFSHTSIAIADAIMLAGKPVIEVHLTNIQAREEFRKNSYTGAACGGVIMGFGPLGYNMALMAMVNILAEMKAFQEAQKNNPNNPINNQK

CREB-binding protein = CREB-binding protein (Homo sapiens, UniProt Q92793); assay: Inhibition of H4K5/8/12/16-Ac-biotin binding to human CREBBP by Alpha screen assay
CREB-binding protein, sequence (Q92793 whole entry): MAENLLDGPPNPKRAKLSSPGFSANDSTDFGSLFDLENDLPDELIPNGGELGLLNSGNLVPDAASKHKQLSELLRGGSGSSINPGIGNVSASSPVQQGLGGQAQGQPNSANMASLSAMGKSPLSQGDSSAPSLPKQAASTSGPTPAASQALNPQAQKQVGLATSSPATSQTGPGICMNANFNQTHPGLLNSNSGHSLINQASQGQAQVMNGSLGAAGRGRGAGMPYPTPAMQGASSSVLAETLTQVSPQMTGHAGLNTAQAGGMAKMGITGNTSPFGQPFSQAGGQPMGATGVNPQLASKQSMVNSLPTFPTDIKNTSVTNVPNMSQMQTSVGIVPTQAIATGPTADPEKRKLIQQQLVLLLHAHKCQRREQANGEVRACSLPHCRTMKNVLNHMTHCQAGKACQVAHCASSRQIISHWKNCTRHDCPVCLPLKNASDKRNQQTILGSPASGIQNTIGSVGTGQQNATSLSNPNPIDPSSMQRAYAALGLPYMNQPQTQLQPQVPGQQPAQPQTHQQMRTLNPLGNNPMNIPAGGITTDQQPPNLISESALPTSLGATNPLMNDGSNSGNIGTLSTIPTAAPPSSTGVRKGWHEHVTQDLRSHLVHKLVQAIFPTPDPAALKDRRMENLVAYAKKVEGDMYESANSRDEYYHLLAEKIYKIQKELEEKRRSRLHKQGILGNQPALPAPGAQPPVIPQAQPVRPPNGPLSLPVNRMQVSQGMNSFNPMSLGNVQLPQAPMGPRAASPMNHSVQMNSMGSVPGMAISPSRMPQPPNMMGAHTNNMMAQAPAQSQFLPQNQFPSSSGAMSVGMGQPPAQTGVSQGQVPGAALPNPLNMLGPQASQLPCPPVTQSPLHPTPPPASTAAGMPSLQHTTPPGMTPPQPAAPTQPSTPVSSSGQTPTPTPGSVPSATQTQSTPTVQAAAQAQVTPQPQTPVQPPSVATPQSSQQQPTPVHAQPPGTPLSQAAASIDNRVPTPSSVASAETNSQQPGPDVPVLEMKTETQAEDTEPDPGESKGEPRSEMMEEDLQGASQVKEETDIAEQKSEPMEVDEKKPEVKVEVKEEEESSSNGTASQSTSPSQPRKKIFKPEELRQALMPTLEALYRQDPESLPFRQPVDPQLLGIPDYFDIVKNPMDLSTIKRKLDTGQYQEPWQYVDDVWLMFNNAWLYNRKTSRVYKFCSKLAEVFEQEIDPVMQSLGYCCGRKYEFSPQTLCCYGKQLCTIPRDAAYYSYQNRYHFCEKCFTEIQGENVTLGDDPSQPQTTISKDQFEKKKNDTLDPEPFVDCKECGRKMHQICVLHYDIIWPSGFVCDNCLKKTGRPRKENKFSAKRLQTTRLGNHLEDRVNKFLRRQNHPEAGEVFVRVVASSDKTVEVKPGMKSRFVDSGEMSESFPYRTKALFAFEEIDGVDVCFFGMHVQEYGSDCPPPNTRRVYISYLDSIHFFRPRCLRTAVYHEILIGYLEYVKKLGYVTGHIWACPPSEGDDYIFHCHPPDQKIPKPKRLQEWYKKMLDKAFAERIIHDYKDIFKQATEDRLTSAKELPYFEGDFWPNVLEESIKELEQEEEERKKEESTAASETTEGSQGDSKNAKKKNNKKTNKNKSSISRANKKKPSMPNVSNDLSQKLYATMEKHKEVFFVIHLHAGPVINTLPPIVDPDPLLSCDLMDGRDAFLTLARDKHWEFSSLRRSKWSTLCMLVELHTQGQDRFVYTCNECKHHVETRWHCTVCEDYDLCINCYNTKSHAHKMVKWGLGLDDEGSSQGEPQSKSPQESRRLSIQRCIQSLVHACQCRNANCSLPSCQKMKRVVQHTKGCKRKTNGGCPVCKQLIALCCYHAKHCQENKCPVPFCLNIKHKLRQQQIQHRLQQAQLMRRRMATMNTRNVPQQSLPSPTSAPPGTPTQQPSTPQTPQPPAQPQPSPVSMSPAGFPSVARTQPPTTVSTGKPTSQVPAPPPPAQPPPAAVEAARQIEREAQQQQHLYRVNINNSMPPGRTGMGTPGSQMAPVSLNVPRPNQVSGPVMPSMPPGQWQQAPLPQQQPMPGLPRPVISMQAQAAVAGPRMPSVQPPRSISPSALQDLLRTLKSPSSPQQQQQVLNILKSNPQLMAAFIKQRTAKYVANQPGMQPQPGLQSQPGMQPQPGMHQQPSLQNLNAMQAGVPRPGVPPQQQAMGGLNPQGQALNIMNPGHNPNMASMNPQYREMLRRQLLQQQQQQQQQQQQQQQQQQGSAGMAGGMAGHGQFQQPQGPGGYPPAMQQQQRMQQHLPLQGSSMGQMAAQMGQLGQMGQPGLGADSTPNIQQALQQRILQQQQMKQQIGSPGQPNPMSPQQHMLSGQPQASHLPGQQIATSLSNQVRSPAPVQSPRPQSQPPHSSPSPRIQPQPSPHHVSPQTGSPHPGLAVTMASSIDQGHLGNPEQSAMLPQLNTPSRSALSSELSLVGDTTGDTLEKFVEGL

Beta-secretase 1, sequence (P56817 whole entry): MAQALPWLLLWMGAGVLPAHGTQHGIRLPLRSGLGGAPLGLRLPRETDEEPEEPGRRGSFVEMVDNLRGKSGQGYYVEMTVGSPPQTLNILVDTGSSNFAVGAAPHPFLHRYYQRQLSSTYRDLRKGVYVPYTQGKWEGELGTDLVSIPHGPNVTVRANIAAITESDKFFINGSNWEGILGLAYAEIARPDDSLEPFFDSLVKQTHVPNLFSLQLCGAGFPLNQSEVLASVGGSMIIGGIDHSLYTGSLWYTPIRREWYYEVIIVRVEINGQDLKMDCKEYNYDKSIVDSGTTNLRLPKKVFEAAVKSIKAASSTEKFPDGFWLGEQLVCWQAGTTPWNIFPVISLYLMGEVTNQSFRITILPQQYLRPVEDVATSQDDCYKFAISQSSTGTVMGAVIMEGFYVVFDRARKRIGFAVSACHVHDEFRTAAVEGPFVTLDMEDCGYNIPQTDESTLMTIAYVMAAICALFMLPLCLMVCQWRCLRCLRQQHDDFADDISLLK

SMILES: O=C(O)c1cc(-c2ccc(/C=N/Nc3nc(Nc4ccc(F)cc4)nc(N4CCOCC4)n3)o2)ccc1Cl
IC50 (Beta-secretase 1): 7 µM

SMILES: CC(=O)N(C)c1cccc(-c2ccc3nnc(C)n3n2)c1
Kd [1]: 7 µM

SMILES: Cc1ccc(OCCCC(=O)Nc2nc(C)c(C)s2)cc1
IC50 [2]: 23 µM

The remaining lines, values ahead:

IC50 [3]: 22 µM
SMILES: COc1cc(/C=C2\SC(=O)N=C2N)ccc1O

Ki [4]: 19 µM
SMILES: CC(C)[C@H](NC(=O)CCCn1c(=O)[nH]c2ccccc2c1=O)C(=O)O

IC50 (CREB-binding protein): 55 µM
SMILES: O=C1CNCC(C(=O)NCCn2nc(-c3ccccc3)ccc2=O)N1 (stereo unspecified)
